From ChEMBL document CHEMBL1150911, “New ceramide from marine sponge Haliclona koremella and related compounds as antifouling substances against macroalgae” (J Nat Prod, 1998)
The source made the active and inactive calls. The calls are words filed in the database; no cut-off is given here.

Columns and labels:
[1] = system: Ulva; experiment: Toxicity against Ulva conglobata at 50 ppm; assay type: organism-based; settings: in vivo
[2] = system: Brachiomonas submarina; experiment: Antimicrobial activity against […] at 1 ppm; assay type: functional, organism-based
[3] = system: Brachiomonas submarina; experiment: Antimicrobial activity against […] at 5 ppm; assay type: functional, organism-based
[4] = system: Prorocentrum micans; experiment: Antimicrobial activity against Prorocentrum micans at 5 ppm; assay type: functional, organism-based
[5] = system: Anagnostidinema amphibium; experiment: Antimicrobial activity against Oscillatoria amphibia at 1 ppm; assay type: functional, organism-based
[6] = system: Anagnostidinema amphibium; experiment: Antimicrobial activity against Oscillatoria amphibia at 5 ppm; assay type: functional, organism-based
[7] = system: Ulva; experiment: Antifouling activity against Ulva conglobata spores assessed as germination and attachment rate at 5 ppm; assay type: functional
[8] = system: Skeletonema costatum; experiment: Antimicrobial activity against Skeletonema costatum at 5 ppm; assay type: functional, organism-based
[9] = system: Ulva; experiment: Antifouling activity against Ulva conglobata spores assessed as germination and attachment rate at 1 ppm; assay type: functional

| SMILES | Activity [1] | Activity [3] | Activity [4] | Activity [6] | further results |
| --- | --- | --- | --- | --- | --- |
| CCCCCCCCCCCCC/C=C/[C@@H](O)[C@H](CO)NC(=O)CCCCCCC | Non-toxic | – | – | – | – |
| CCCCCCCCCCCCC/C=C/[C@@H](O)[C@H](CO)NC(C)=O | Non-toxic | – | – | – | – |
| CCCCCCCCCCCCCCC[C@@H](O)[C@@H](N)CO | – | Active | Active | Active | Activity [2]: Active; Activity [5]: Active |
| CCCCCCCCCCCCCCCCCCCCCC(=O)N[C@@H](CO)[C@H](O)/C=C/CCCCCCCCCCC(C)C | Non-toxic | – | – | – | – |
| CCCCCCCCCCCCC/C=C/[C@@H](O)[C@H](CO)NC(=O)CCCCC | Non-toxic | – | – | – | – |
| CCCCCCCCCCCCC/C=C/[C@@H](O)[C@H](CO)NC(=O)CCCCCCCCCCCCCCC | Non-toxic | – | – | – | – |
| CCCCCCCCCCCCC/C=C/[C@@H](O)[C@H](CO)N(C)C | – | Active | Active | Active | Activity [7]: Active; Activity [8]: Active |
| CCCCCCCCCCCCC/C=C/[C@@H](O)[C@@H](N)CO [SPHINGOSINE] | – | Active | Active | Active | Activity [9]: 15%; Activity [7]: 0%; Activity [8]: Active |
